From ChEMBL document CHEMBL5360568, “Synthesis and anti-Alzheimer potential of novel α-amino phosphonate derivatives and probing their molecular interaction mechanism with acetylcholinesterase” (Eur J Med Chem, 2023)

What was measured:
Acetylcholinesterase [1] = target: Acetylcholinesterase (Electrophorus electricus, UniProt O42275); assay: Inhibition of electric eel AChE using acetylthiocholine iodide as substrate preincubated for 5 mins followed by substrate addition by DTNB based Ellman's method
Sequence of Acetylcholinesterase (Electrophorus electricus, UniProt O42275) (O42275 whole entry): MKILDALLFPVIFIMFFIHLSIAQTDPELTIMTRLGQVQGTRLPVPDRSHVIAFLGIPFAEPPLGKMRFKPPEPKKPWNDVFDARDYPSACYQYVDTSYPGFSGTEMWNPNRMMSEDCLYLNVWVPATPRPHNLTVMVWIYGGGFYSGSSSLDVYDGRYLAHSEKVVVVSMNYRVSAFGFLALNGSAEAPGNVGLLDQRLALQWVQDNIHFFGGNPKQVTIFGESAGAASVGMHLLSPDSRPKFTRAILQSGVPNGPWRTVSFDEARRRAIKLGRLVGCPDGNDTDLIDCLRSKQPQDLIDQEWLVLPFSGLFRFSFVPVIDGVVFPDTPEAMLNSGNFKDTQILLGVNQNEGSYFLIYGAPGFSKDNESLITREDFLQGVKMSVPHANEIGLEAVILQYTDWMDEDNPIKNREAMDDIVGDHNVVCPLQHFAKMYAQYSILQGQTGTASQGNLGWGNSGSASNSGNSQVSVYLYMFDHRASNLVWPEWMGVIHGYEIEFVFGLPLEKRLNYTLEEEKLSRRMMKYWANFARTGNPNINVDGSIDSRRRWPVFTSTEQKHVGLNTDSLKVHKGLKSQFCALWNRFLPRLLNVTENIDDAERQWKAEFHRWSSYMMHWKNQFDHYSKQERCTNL

Cholinesterase = Cholinesterase (Equus caballus, UniProt P81908); assay: Inhibition of equine serum BuChE using butyrylthiocholine iodide as substrate preincubated for 5 mins followed by substrate addition by DTNB based Ellman's method
Sequence of Cholinesterase (P81908 whole entry): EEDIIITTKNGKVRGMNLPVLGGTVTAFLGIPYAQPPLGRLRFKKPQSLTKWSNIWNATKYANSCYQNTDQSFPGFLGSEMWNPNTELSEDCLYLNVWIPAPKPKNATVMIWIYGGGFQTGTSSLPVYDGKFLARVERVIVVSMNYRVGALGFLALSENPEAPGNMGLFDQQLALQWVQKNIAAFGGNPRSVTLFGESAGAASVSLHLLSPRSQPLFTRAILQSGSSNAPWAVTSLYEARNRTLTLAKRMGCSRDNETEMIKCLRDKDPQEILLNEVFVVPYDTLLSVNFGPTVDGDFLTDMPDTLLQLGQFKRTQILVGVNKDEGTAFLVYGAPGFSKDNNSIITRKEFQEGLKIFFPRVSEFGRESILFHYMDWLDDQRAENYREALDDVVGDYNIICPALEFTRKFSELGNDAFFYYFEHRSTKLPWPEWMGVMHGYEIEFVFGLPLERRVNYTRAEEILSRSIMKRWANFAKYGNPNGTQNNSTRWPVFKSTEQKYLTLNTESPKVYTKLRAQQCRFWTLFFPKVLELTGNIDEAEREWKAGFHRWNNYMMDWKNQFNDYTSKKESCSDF

[2] = Antioxidant activity assessed as ABTS radical scavenging activity incubated for 30 mins by spectrophotometric analysis; assay type: functional
Acetylcholinesterase [3] = target: Acetylcholinesterase (Homo sapiens, UniProt P22303); assay: Inhibition of human erythrocyte AChE using acetylthiocholine iodide as substrate preincubated for 5 mins followed by substrate addition by DTNB based Ellman's method
Sequence of Acetylcholinesterase (Homo sapiens, UniProt P22303) (P22303 whole entry): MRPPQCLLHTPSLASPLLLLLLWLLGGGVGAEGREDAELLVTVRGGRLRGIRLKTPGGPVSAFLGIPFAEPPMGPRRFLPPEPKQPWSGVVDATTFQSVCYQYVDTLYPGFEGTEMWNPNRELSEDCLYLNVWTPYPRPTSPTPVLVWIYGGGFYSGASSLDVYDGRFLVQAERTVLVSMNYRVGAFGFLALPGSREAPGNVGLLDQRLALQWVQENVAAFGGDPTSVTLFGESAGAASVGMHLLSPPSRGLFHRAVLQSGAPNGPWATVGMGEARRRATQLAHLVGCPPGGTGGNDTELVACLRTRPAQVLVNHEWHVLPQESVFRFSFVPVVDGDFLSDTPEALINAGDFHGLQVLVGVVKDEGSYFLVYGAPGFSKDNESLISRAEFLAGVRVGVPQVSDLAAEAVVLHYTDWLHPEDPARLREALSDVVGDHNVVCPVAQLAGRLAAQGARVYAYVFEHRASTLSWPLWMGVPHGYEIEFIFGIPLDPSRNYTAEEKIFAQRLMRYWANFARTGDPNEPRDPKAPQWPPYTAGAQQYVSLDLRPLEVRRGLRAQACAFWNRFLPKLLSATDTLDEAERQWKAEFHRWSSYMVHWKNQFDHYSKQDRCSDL

[4] = Selectivity ratio, ratio of IC50 for inhibition of equine serum BuChE to IC50 for inhibition of electric eel AChE
[5] = target: Amyloid-beta precursor protein (Homo sapiens) (UniProt P05067); assay: Modulation of amyloid beta (1 to 42) (unknown origin) self aggregation assessed as increase in fluorescence intensity at 0.03 to 0.1 uM incubated for 24 hrs by Thioflavin T fluorescence assay; settings: filed as modulator, dose 0.03-0.1 µM
Sequence of Amyloid-beta precursor protein (Homo sapiens) (P05067 whole entry): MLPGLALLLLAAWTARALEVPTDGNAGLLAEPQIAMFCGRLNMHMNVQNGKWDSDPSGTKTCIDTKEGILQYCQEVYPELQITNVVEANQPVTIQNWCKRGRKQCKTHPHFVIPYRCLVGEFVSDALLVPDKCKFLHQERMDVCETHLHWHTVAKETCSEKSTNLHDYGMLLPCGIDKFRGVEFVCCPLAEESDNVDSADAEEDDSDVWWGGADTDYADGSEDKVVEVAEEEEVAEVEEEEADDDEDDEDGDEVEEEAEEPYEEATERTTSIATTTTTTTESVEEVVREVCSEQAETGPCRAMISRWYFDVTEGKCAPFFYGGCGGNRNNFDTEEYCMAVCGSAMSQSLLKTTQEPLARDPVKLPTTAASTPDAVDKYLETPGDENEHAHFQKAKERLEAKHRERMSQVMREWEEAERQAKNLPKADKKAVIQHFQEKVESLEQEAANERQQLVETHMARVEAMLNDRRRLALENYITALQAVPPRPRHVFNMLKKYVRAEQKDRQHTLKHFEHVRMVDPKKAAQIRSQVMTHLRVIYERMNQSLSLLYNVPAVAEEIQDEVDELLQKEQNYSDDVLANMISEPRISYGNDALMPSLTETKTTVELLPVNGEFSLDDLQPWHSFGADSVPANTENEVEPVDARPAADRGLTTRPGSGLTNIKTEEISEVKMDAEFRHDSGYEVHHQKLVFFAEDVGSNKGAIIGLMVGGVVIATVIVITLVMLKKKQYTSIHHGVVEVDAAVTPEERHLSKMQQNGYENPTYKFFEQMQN

CCOP(=O)(OCC)C(Nc1ccccc1Br)c1ccc(OCc2nc3ccccc3c(=O)n2-c2ccc(F)cc2)c(OC)c1 (stereo unspecified)
IC50 (Acetylcholinesterase [1]): 0.473 µM | IC50 (Cholinesterase): > 100 µM | IC50 [2]: > 50 µM

CCOP(=O)(OCC)C(Nc1ccccc1C(C)=O)c1ccc(OCc2nc3ccccc3c(=O)n2-c2ccc(F)cc2)c(OC)c1 (stereo unspecified)
IC50 (Acetylcholinesterase [1]): 0.378 µM | IC50 (Acetylcholinesterase [3]): 5.62 µM | IC50 (Cholinesterase): 12.1 µM | Ratio IC50 [4]: 31.9 | IC50 [2]: 50 µM

CCOP(=O)(OCC)C(Nc1c(C)cccc1C)c1ccc(OCc2nc3ccccc3c(=O)n2-c2ccc(F)cc2)c(OC)c1 (stereo unspecified)
IC50 (Acetylcholinesterase [1]): 0.353 µM | IC50 (Acetylcholinesterase [3]): 3.02 µM | IC50 (Cholinesterase): > 100 µM | IC50 [2]: > 50 µM

CCOP(=O)(OCC)C(Nc1ccccc1O)c1ccc(OCc2nc3ccccc3c(=O)n2-c2ccc(F)cc2)c(OC)c1 (stereo unspecified)
IC50 (Acetylcholinesterase [1]): 0.558 µM | IC50 (Cholinesterase): > 100 µM | IC50 [2]: 41.2 µM

COc1ccc2c3c1O[C@H]1C[C@@H](O)C=C[C@@]31CCN(C)C2
Activity [5]: Dose-Dependent Effect

CCOP(=O)(OCC)C(Nc1ccc(OC)cc1)c1ccc(OCc2nc3ccccc3c(=O)n2-c2ccc(F)cc2)c(OC)c1 (stereo unspecified)
IC50 (Acetylcholinesterase [1]): 0.431 µM | IC50 (Cholinesterase): > 100 µM | IC50 [2]: 29 µM

CCOP(=O)(OCC)C(Nc1cccc(O)c1)c1ccc(OCc2nc3ccccc3c(=O)n2-c2ccc(F)cc2)c(OC)c1 (stereo unspecified)
IC50 (Acetylcholinesterase [1]): 0.369 µM | IC50 (Acetylcholinesterase [3]): 4.34 µM | IC50 (Cholinesterase): > 100 µM | IC50 [2]: 35.8 µM

CCOP(=O)(OCC)C(Nc1ccc(F)cc1)c1ccc(OCc2nc3ccccc3c(=O)n2-c2ccc(F)cc2)c(OC)c1 (stereo unspecified)
IC50 (Acetylcholinesterase [1]): 0.805 µM | IC50 (Cholinesterase): 35.4 µM | Ratio IC50 [4]: 43.9 | IC50 [2]: > 50 µM

CCOP(=O)(OCC)C(Nc1cc(C)ccc1C)c1ccc(OCc2nc3ccccc3c(=O)n2-c2ccc(F)cc2)c(OC)c1 (stereo unspecified)
IC50 (Acetylcholinesterase [1]): 0.414 µM | IC50 (Acetylcholinesterase [3]): 6.05 µM | IC50 (Cholinesterase): 18.7 µM | Ratio IC50 [4]: 45.1 | IC50 [2]: > 50 µM

Cc1c(C)c2c(c(C)c1O)CCC(C)(C(=O)O)O2 (stereo unspecified) [TROLOX]
IC50 [2]: 25.1 µM

CCOP(=O)(OCC)C(Nc1nncs1)c1ccc(OCc2nc3ccccc3c(=O)n2-c2ccc(F)cc2)c(OC)c1 (stereo unspecified)
IC50 (Acetylcholinesterase [1]): 0.361 µM | IC50 (Acetylcholinesterase [3]): 3.37 µM | IC50 (Cholinesterase): > 100 µM | IC50 [2]: > 50 µM

CCOP(=O)(OCC)C(Nc1cc(C)cc(C)c1)c1ccc(OCc2nc3ccccc3c(=O)n2-c2ccc(F)cc2)c(OC)c1 (stereo unspecified)
IC50 (Acetylcholinesterase [1]): 0.465 µM | IC50 (Cholinesterase): 26.4 µM | Ratio IC50 [4]: 56.8 | IC50 [2]: 46.2 µM
